Assay results from patent US9999614B2, “Combination for the prophylaxis and treatment of behavioural, mental, and cognitive disorders” (LTD “VALENTA-INTELLEKT”, priority 2012, dated 2018).

System: amnesia in mice, as caused by scopolamine
Experiment: CPAR, model of amnesia caused by scopolamine
Type: in vivo
Conditions: for Latent time of entering into the dark chamber / Number of mice not entered into the dark chamber, % / Number of mice taught to CPAR (%): scopolamine 1 mg/kg i.p., Melatonin 5 mg, Memantin 10 mg mono-use; for Number of mice taught to CPAR (%): agents i.p. once a day for 5 days; for Effect on scopolamine amnesia of the skill (in words): summary of Tables 3-4
Protocol: For this, the active substances Melatonin 3 mg/Memantin 10 mg, Melatonin 5 mg/Memantin 20 mg, Melatonin 10 mg/Memantin 20 mg were taken, and doses recommended for human beings were converted into doses adapted for mice according to the formula “(active substance/70(average weight of a human being))×7”. Then the compositions were dissolved in 5 mL of the solution and, according to the given formula, introduced to animals intraperitoneally once a day for 5 days.
The CPAR test is the main model for evaluating substance influences on formation and replication of short-time memory in a normal condition and in an abnormal condition, i.e., induced amnesia. The CPAR is the most informative method among the methods that are used today for evaluating efficiency of substances with influence on the CNS of mammals (see, “Manual for Experimental (Pre-Clinical) Studies of New Pharmacological Substances”, 2000). The CPAR (conditioned passive avoidance reflex in a dark, light chamber) was taught to the mice on the basis of electrodermal response according to the method proposed by Cumin et al. (1982) with due regard to the recommendations given by Mondadori et al. (1990). The installation for mice, as produced by Lafayette Instrument Co., USA, was a black chamber with the electrode floor and a white plastic platform that was arranged on the floor in the center of the chamber. The mice, one by one, were put onto the plastic platform. The animals went/jumped down onto the electrode floor where they received an electric current shock, i.e., punishment. Electric current was supplied after the time when an animal stood on the floor with all its four legs. The natural response of the animals is to go back to the current-free or safe platform. […] Tests for memorizing CPAR were conducted in successive time intervals after amnesic action. In a case where an animal went/jumped down onto the platform within 1 minute, it was recorded as having retrograde amnesia of the passive avoidance skill. The compositions were studied in comparison with Melatonin 5 mg (mono-use) and Memantin 10 mg (mono-use), according to the above formula for adapting to animal models.
The compositions under study were dissolved in 5 mL of the solution and, according to the above formula, introduced to the animals intraperitoneally, once a day for 5 days.

SMILES	Latent time of entering into the dark chamber (1 day after teaching) [s]	Number of mice not entered into the dark chamber, % (1 day after teaching) [%]	Latent time of entering into the dark chamber (3 days after teaching) [s]	Number of mice not entered into the dark chamber, % (3 days after teaching) [%]	Latent time of entering into the dark chamber (7 days after teaching) [s]	Number of mice not entered into the dark chamber, % (7 days after teaching) [%]	Latent time of entering into the dark chamber (10 days after teaching) [s]	Number of mice not entered into the dark chamber, % (10 days after teaching) [%]	Number of mice taught to CPAR (%)	Effect on scopolamine amnesia of the skill (in words)
COc1ccc2[nH]cc(CCNC(C)=O)c2c1 [Melatonin, N-acetyl-5-methoxytriptamine]	111.3 ± 15.7	58.3	107.4 ± 21.2	54.5	105.8 ± 17.4	45.4	101.2 ± 20.6	36.3	66.7	influenced on amnesia of the skill obtained, but insignificantly
CC12CC3CC(C)(C1)CC(N)(C3)C2 [Memantin]	110.8 ± 25.8	50	114.4 ± 18.2	60	111.1 ± 21.2	40	108.6 ± 18.7	40	70	influenced on amnesia of the skill obtained, but insignificantly
